In one experiment the test system is Akt, Bcl-2, Bcl-xL, Bax. In kind it is cell-based.
In experiment [1] the test system is four different kinds of tumor cell lines. The experiment is described as follows: TNFα-induced apoptosis of tumor cells (DNA ladder, acridine orange staining, flow cytometry). In kind it is cell-based, human. Conditions: for total apoptotic rate: flow cytometry; for number of apoptotic cells (acridine orange / ethidium bromide staining): fluorescent microscope, vs control group. As to the method: A week later, TNFα is used to induce the apoptosis of tumor cells. The apoptosis is measured using different methods. […] Thus, the EETs and epoxygenase gene resist the apoptosis of cancer cells induced by TNF-α. After PI staining and Annexin V-FITC/PI dobule staining separatively, the total apoptosis rate and early apoptosis rate of cells are calculated using flow cytometry.
A general note: A flow cytometer gives signals particle by particle.

For a further experiment, the system named is four tumor cell lines. Briefly: Proliferation of four kinds of tumor cells in vitro. Format: cell-based, human. To be noted: FIG. 15, dose dependence. The source says: The epoxygenase metabolizes arachidonic acid to yield endogenous epoxyeicosatrienoic acids. Thus, the EETs concentration is increased indirectly. This can directly verity that the function of CYP epoxygenase for promoting proliferation of tumor cells.

Experiment [2] deals with Tca-8113, A549, Ncl-H446, and HepG2 cell lines. The experiment is described as follows: Migration and invasion of tumor cells in modified Boyden chamber. Format: cell-based, human. Conditions: 5 h, P<0.01. As for the experimental part: The migration of epithelial cells in the modified Boyden chamber is measured using a conventional method. A polycarbonate filter membrane of […] is coated at 4° C. for 24 h using collagen IV (10 μg/mL) and Matrigel (11 μg/filter). The Tca-8113, A549, Ncl-H446, and HepG2 cell lines are washed with DMEM culture solution to 2×10^6/mL. 200 μL of DMEM containing 5% FBS is added to the low part of the Boyden chamber as a chemoattractant, and followed by covering a polycarbonate filter membrane. 800 μL of a cell suspension is added to the upper part of the Boyden chamber, cultured at 37° C. at 5% CO2 for 5 h. The device is disassembled and the membrane is collected. The cells are cleaned off, and the membrane is fixed with carbinol and stained with hematoxylin. Five fields of vision per membrane are observed under a 200× microscope. Subsequently, the number of migrating cells is calculated.

In the next experiment the test system is transplantation tumor. The experiment is described as follows: Growth of transplantation tumor under epoxygenase inhibitor (FIG. 17). Format: in vivo. To be noted: FIG. 17, without joint use of 5-fluorouracil.
The test system of another experiment is tumor. Briefly: Growth of tumor under EET blocker (FIG. 16). Conditions: FIG. 16, 100 nmol/L.
Setting [3] is: EET pretreatment experiment, control 28.15%±4.7.

Experimental findings from patent publication US8273344B2, “Recombinant adeno-associated virus expressing human antisense gene CyP2J2 and its preparation methods” (priority 2004, dated 2012) are described below.

Several values for one entry are separate records, joined by “and”; a condition that tells them apart may be missing. Identical values can stand only once.

`C#CCCCCCCCCCCCCCCCC(=O)O` [17-ODYA]: in the experiment with Akt, Bcl-2, Bcl-xL, Bax, the “expression of antiapoptosis protein Bcl-2 and Bcl-xL” value is on record as “completely opposite effect”; the “expression of apoptosis protein Bax” value was “completely opposite effect”; the “phosphorylation of Akt” value is “completely opposite effect”. Further, the total apoptotic rate in experiment [1] (setting [3]) is on record as 52.65%±3.6. Besides, the “number of apoptotic cells (acridine orange / ethidium bromide staining)” value in experiment [1] is “large”. Further, in experiment [1] (induced by TNF-α), the “apoptosis of tumor cells (in words)” value was “promotes significantly”. In addition, in experiment [1] (transfection experiment, control 20.15%±3.5), the total apoptotic rate is recorded as 33.51%±6.1. In addition, in the experiment on four tumor cell lines, the “growth of tumor cells” value is given as “dose-dependently inhibits”. Further, in experiment [2], the “ability of migrating of cells relative to basal state” value was “about 60 % of basal state”. In the experiment on transplantation tumor, the “growth of transplantation tumor” value is recorded as “can inhibit”.
In the case of `CCCCCC1OC1C/C=C\C/C=C\C/C=C\CCCC(=O)O` (centres unmarked) [14, 15-EET], the growth of tumor entry with tumor is listed as “can inhibit”.
For epoxyeicosatrienoic acids [EETs], in the experiment on Akt, Bcl-2, Bcl-xL, Bax, the “expression of antiapoptosis protein Bcl-2 and Bcl-xL” value is “increase”; the “expression of apoptosis protein Bax” value is recorded as “decrease”; the “phosphorylation of Akt” value is given as “promote”. Moreover, in experiment [1] (setting [3]), the total apoptotic rate was 14.94%±3.5 and 11.72%±4.2 and 12.89%±2.7. In experiment [1] (TNFα-induced apoptosis), the “formation of DNA ladder” value was “decrease significantly”. In addition, in experiment [1], the “number of apoptotic cells (acridine orange / ethidium bromide staining)” value is listed as “significantly less”.
